Assay results published in patent EP4151203B1, “RAPESEED MEAL EXTRACT, METHOD FOR PREPARING SAME AND USE IN COSMETICS, IN PARTICULAR AS A PRO-PIGMENTING, SLIMMING AGENT” (Lyster, priority 2021, dated 2023).
Where “and” joins values, the source holds several entries; their conditions need not be identical. Equal entries are not always repeated. Marks after values point to notes of the source that are not given here.

Assays:
[1] = test system: mélanocytes humains normaux; assay: Propigmenting activity: melanin production by melanocytes (optical density at 405 nm); assay type: cell-based, humain; details: 250 µM
Description: Les mesures de l'activité propigmentante (augmentation de la production de mélanine) de plusieurs compositions de l'extrait de tourteau de colza présentant des concentrations différentes ont été effectuée par dosage des mélanocytes humains normaux in vitro.
Les compositions de concentrations 0,03% (v/v), 0,1% (v/v), et 0,3% (v/v) ont été préparées par dilution de la solution 50/50 dans le milieu d'incubation.
Les cultures des mélanocytes normaux d'épiderme humain ont été cultivés en culture monocouche jusqu'à confluence. Puis les mélanocytes ont été incubés pendant 72 heures soit en l'absence de l'extrait à tester (contrôle) soit en présence des différentes compositions de l'extrait à tester. Le produit de référence pour l'inhibition de la synthèse de mélanine était une solution d'acide kojique à 250 µM.
Les quantités de mélanine produite par les mélanocytes ont été déterminées par une méthode spectrophotométrique c'est-à-dire une mesure de densité optique à 405 nm effectuée au moyen d'un spectrophotomètre « Genesys 150 » de la société ThermoFisher Scientific.
Le tableau 7 présente la quantité de mélanine (µg) produite par mg de protéines totales dans le lysat cellulaire monocouche.
Le niveau de signification entre le "contrôle" et la « référence » a été évalué à l'aide d'un test t de Student (* : p<0,05). [Tableau 7]

[2] = test system: adipocytes humains normaux; assay: Lipolytic activity: NEFA released by adipocytes in suspension; assay type: cell-based, humain; details: for NEFA, Moyenne / NEFA: 2 h; for NEFA, Moyenne: mean of 3, p<0.05 vs control; for NEFA: single replicate
Source text: Les mesures de l'activité lipolytique de plusieurs compositions d'extrait de tourteau de colza à des concentrations différentes ont été effectuées sur des adipocytes humains normaux de tissu cutané adipeux prélevé sur un adulte de 40 ans. Une suspension des adipocytes humains a été incubée pendant 2 H en présence d'une part des compositions d'extrait à tester et d'autre part du produit de référence (contrôle).
Les compositions de concentrations 0,003% (v/v), 0,01% (v/v), et 0,03% (v/v) d'extrait de tourteau de colza ont été préparées par dilution de la solution 50/50 dans le milieu d'incubation.
À la fin de la période d'incubation, la quantité de NEFA libérés dans le milieu d'incubation a été déterminée à l'aide d'un kit de mesure spectro-colométrique spécifique et sensible.
Le niveau de signification entre le "contrôle" et le "produit de référence" a été évalué à l'aide d'un test t de Student (* : p<0,05).
Le niveau de signification entre le le "contrôle" et chaque "composé testé" a été évalué indépendamment pour chaque composition par une analyse de variance à un facteur (ANOVA à sens unique) suivie d'un test de Holm-Sidak (* : p<0,05).

Compound	mélanine, % du contrôle ([1]; 72 h) [%]	µg mélanine/mg de protéines, Moyenne ([1]; 72 h, mean of 3, p<0.01 vs control)	µg mélanine/mg de protéines ([1]; 72 h, single replicate)	inhibe la production de mélanine ([1]; inhibition vs control, significant)	NEFA, Moyenne ([2]; 10^-3 mol/L)	NEFA ([2]; 10^-3 mol/L)	augmente la lipolyse des adipocytes ([2]; 10^-3 mol/L, increase vs control, p<0.05) [%]	NEFA, Moyenne ([2]; 10^-4 mol/L)	NEFA ([2]; 10^-4 mol/L)
O=c1cc(CO)occ1O [acide kojique]	52.4	35.8** µg mélanine/mg de protéines	45.1 µg mélanine/mg de protéines and 30.3 µg mélanine/mg de protéines and 32.0 µg mélanine/mg de protéines	47,6%					
Cn1c(=O)c2c(ncn2C)n(C)c1=O [Caféine, caféine]					47.9* µM	41.5 µM and 50.3 µM and 51.9 µM	41.1	37.7* µM	37.1 µM and 38.8 µM and 37.2 µM
